A melting point compilation (Tetko et al.; mined from patent text by program, amines drawn as free bases though some values may be those of a salt)

melting point [°C]	Compound
126 to 128	COC(=O)[C@H](Cc1c(Br)n(C(=O)OC(C)(C)C)c2cc(Br)c(OC)c(Br)c12)NC(C)=O
73 to 74	COC(CO)(OC)C1(c2ccc(Cl)cc2)CCC1
224 to 227	COc1ncc(-c2nn(C(C)c3oc4ccccc4c(=O)c3-c3cccc(F)c3)c3ncnc(N)c23)cn1 (configuration not stated)
197 to 198	CC(O)c1ccc(Cc2cn(-c3ccc(F)cc3)c3ncccc3c2=O)cc1 (configuration not stated)
53 to 54.5	CCCCCCCCCCNS(=O)(=O)c1ccc(OC)cc1
169 to 171	COc1cn(-c2ccc(C(F)(F)F)cc2F)nc(-c2ccnn2-c2ccccc2)c1=O
73.8 to 75.6	O=C1C(=Cc2c(Cl)cccc2Cl)CCc2ccccc21
36 to 38	O=Cc1cc2c(cc1[N+](=O)[O-])OC(F)(F)O2
210 to 212	CCCc1nn(C)c2c(=O)[nH]c(-c3ccc(OC)c(OC)c3)nc12
156 to 160	CCOC(=O)c1c(Nc2ccccc2C)n[nH]c1C
198	CCOC(=O)c1cc2c(nc(C)n2C)c2c1CCC(OC)(c1ccccc1C)O2 (configuration not stated)
83 to 85	COCCn1c(S(C)=O)nc(-c2ccc(F)cc2)c1-c1ccnc(Nc2ccccc2)c1 (configuration not stated)
196 to 198	c1cc(-c2n[nH]c3c2Cc2cc(CN4CCOCC4)ccc2-3)cs1
173 to 174	NC1=Nc2ncccc2OC1
186 to 187	CCCCCCCCCC(C)(C)c1cc(C(=O)Sc2ccc(C(=O)O)cc2)ccc1OC
229 to 230	CC(C)(C)c1ccc(C(=O)Nc2cn3c(CO)cccc3n2)cc1
122 to 126	CCOC(=O)c1cc(C)c(Cl)nc1Nc1ccccc1F
106 to 107	COCCNC(=O)c1cccc(-c2cccc3cc(Cc4cc(F)cc(C(F)(F)F)c4)sc23)c1
193	CCN(CC)c1ccc(-c2cc(-c3ccc(C(=O)O)cc3)ccc2OCC(C)O)cc1C(C)(C)C (configuration not stated)
225	CN(C)S(=O)(=O)c1cccc(-c2cc(-c3nc(-c4ccc(C(F)(F)F)cc4)cc(C(F)(F)F)n3)ccn2)c1
185	COc1ccc(CNc2ncccc2C(=O)Nc2cccc(C(F)(F)F)c2)cn1
214 to 216	COC(=O)c1sc2c(c1N)c1ccccc1c(=O)n2-c1ccccc1Br
184 to 187	ON1CCC2(CC1)OC(c1ccccc1)c1ccccc12 (configuration not stated)
141 to 143	CCn1cc(OS(C)(=O)=O)c(=O)c2ccccc21

melting point [°C]	Compound
218 to 219	Oc1cnc2c(c1)CCC(c1ccc(Cl)c(Cl)c1)O2 (configuration not stated)
131 to 134	CC(C)c1ccc(C(=O)O)c(C2=NC(=O)C(C)(C(C)C)N2)n1 (configuration not stated)
132 to 134	c1ccc(C2OC3(CCOCC3)c3ccccc32)cc1 (configuration not stated)
257 to 258	O=C(Cc1cccc2ccccc12)N[C@H]1C[C@H](C(=O)O)Nc2cc(Cl)cc(Cl)c21 (relative stereo)
156 to 158	CCCCCCCCCCCc1cc2ccc(C(=O)O)cc2[nH]1
197 to 200	Cc1ccccc1C=C(C(=O)O)C(=O)O
148 to 150	CC(=O)OC1CC(=O)N([Si](C)(C)C)C1 (configuration not stated)
139	Cc1nc2ccccn2c(=O)c1CCN1CCC(C(=O)c2ccc(F)cc2)CC1
273 to 276	CC(=NNC(=N)N)c1sc(-c2ccc(C3CCCCC3)cc2)nc1C
88 to 91	CCNC(=S)NCc1ccc(/C=C/C(c2cc(Cl)c(Cl)c(Cl)c2)C(F)(F)F)cc1Cl (configuration not stated)
124 to 125	O=C(Oc1cc(OC(=O)c2ccccc2)c(Cl)cn1)c1ccccc1
135	O=c1[nH]c2ccccc2n1CCCN1CCC(O)(c2ccc(F)cc2)CC1
173	CCc1oc2ccccc2c1C(=O)c1cc(Br)c(OS(=O)(=O)c2ccc(C(=O)O)c(O)c2)c(Br)c1
268 to 270	O=C(O)c1cn(C2CC2)c2c(F)c(N3CCC(n4cnnn4)C3)c(F)cc2c1=O (configuration not stated)
202	CN(C)c1ccc(C=NC2CCCCC2N=Cc2ccc(O)cc2O)c(O)c1 (configuration not stated)
329 to 330	Cn1c(C(N)=O)c(-c2ccc(F)cc2)c2cccnc2c1=O
107 to 112	OCc1c(Cl)cc(Cl)c2ccc(Cl)cc12
155 to 156	Cc1nc2ccc(N3CCN(CCCC(=O)c4ccc(F)cc4)CC3)nc2nc1C
185 to 190	CCCCOC(=O)c1cccc(-c2c3nn(-c4ccc(Cl)cc4)c(=O)c-3c[nH]c2C)c1
142 to 143	O=C(c1ccc(F)cc1)N1CCC[C@H](c2nc(-c3ccc4ccccc4c3)no2)C1
74 to 75	CC(C)c1nn(-c2ccc(C(F)(F)F)cn2)cc1CCO
195 to 197	Nc1nc(Cl)nc2c1ncn2C1C=CCCC1 (configuration not stated)
133 to 134	CCOC(=O)C1=CC2(CCC1S(=O)(=O)Nc1ccc(F)cc1Cl)OCCS2 (configuration not stated)
138 to 142	O=C(Nc1c([N+](=O)[O-])cnn1-c1c(Cl)cc(S(=O)(=O)C(F)(F)F)cc1Cl)C(Cl)Cl

melting point [°C]	Compound
169 to 170	Cn1ncnc1COc1nn2c(-c3cccc(F)c3)nncc2c1-c1ccccc1F
149 to 151	COc1ccc(Cn2c3c(c4cc(F)cc(F)c42)CCCC3CC(=O)O)cc1 (configuration not stated)
179 to 180	O=c1ccn(-c2ccccc2)nc1-c1ccnn1-c1ccccc1
> 330	CNC(=O)c1nc(-c2cccnc2)nc2c1[nH]c(=O)n2-c1ccccc1
198 to 199	COc1cccc(C(=O)O)c1OCc1nc(-c2ccco2)oc1C
202 to 208	COc1ccc(CC2SC(=O)NC2=O)c2c1N(Cc1ccc(NC(=O)c3ccc4ccccc4c3)cc1)C(=O)CC2 (configuration not stated)
101	Cc1c(C)c2ccc(OCCCCCc3ccccc3)cc2oc1=O
269 to 272	Cn1c(C#N)ccc1-c1ccc2c(c1)C1(CCCCC1)C(=S)N2
101 to 102	C=C(C)CNC(=O)N1CC(Oc2ccc(C(F)(F)F)cc2)C1
89 to 91	COc1ccc(C(O)Cc2nccnc2C)cc1 (configuration not stated)
119	CC(C)(C)OC(=O)[C@@H](CCCOS(=O)(=O)c1ccc2ccccc2c1)C[C@H](NC(c1ccccc1)(c1ccccc1)c1ccccc1)C(=O)OC(C)(C)C
120 to 122	COC1=CC(=O)C2CC=CCC2C1=O (configuration not stated)
271	CC(C)(C)c1cc(-c2n[nH]c(=S)[nH]2)cc(C(C)(C)C)c1O
65 to 70	CC#CCOc1ccc(S(=O)(=O)N(C)C(C(=O)NO)c2ccc(OCCCNS(C)(=O)=O)cc2)cc1 (configuration not stated)
102 to 104	C[Si](Cn1ncnc1I)(c1ccc(F)cc1)c1ccc(F)cc1
136 to 138	COCC1CN(c2ccc(C3CCN(C(=O)C=Cc4ccccc4)CC3)cc2)C(=O)O1 (racemic)
196 to 198	O=C1c2ccccc2C(=O)N1CC(=O)N1c2ccccc2N(Cc2cccc(OCc3ccccc3)c2)C(=O)[C@H]2CCC[C@H]21 (relative stereo)
195 to 197	O=C(Nc1ccccc1F)Nc1cc(Cl)ccc1C(=O)O
140 to 142	OC1CC2c3ccccc3CCN2C2CCCCC12 (configuration not stated)
120 to 121	COC(=O)CNC(=O)COc1ccc(C(C)=O)cc1
71 to 72	CC(C)=CCS(=O)(=O)c1ccc(C)cc1
111 to 112	O=C1C(Cl)=C(c2ccccc2)C(=O)c2ccccc21
163 to 165	CCC(Oc1ccc(C(C)(C)CC(C)(C)C)cc1)C(=O)Nc1ccc(Cl)c(Nc2cc(=O)n(-c3c(Cl)cc(Cl)cc3Cl)[nH]2)c1 (configuration not stated)
246 to 248	COC(=O)c1[nH]c(-c2ccccc2)c(NC(N)=O)c1C(=O)OC

melting point [°C]	Compound
107 to 110	COCSCCNC(=C[N+](=O)[O-])NCC(O)c1ccccc1 (configuration not stated)
210 to 213	CC(=O)SCCCn1cc(C2=C(c3cn(C)c4ccccc34)C(=O)NC2=O)c2ccccc21
180 to 183	NC(=NO)c1ccc(-c2ccc(N)cc2)o1
106 to 108	CC(C)c1cn2nc(Cl)ccc2n1
120 to 122	O=C1CCC(=O)N1CC#CCn1ccnc1
274 to 276	COc1cc2c(cc1Br)C(=CNc1ccc(N3CCN(C)CC3)cc1)C(=O)NC2=O
171 to 173	Cc1ccccc1-c1cn(C)cc(-c2cccc(Cl)c2)c1=O
123 to 124	COC1CCC2(C)C(=CCC3C2CCC2(C)C(C(C)=O)CCC32)C1 (configuration not stated)
169 to 171	CCC1c2ccc(F)n2-c2ccc(F)cc2N1S(=O)(=O)c1ccc(O)cc1 (configuration not stated)
147 to 148	CCOC(=O)c1c(C)nc(-c2ccccc2)nc1-c1ccc(OC(C)=O)c([N+](=O)[O-])c1
231 to 232	CC1(C)C(=O)Oc2ccc3cc(C(N)=O)c(Cn4cncn4)cc3c21
130 to 132	CN(C=CC(=Nc1ccccc1)Oc1ccccc1)c1ccccc1
70 to 84	COc1cc2c(cc1Nc1ncc(Cl)c(Nc3ccccc3S(=O)(=O)N3CCC(O)C3)n1)CCN(CC(=O)N(C)C)CC2 (configuration not stated)
145	Fc1cccc(F)c1Cn1c(-c2c(F)cccc2F)nc2ccccc21
110 to 112	CCOC(=O)Nc1nc(CC(=O)OC)ns1
277 to 279	CC(C)Oc1cccc(C=C2Oc3ccc(C(=O)O)cc3C2=O)c1
287 to 290	O=C(c1ccsc1)c1cccc(-c2c(O)c3ccc(Cl)cc3[nH]c2=O)c1
95 to 101	COc1ccccc1NC(=O)Nc1nc(NC(C)C)nc(N(CCC(=O)O)Cc2ccc(Cl)c(Cl)c2)n1
47 to 48	CCCCCCCCCCCCS(=O)(=O)c1ccccc1[N+](=O)[O-]
110 to 111	Nc1cc(Cl)ncc1F
66 to 67	O=Cc1ccc([N+](=O)[O-])cn1
205 to 207	Cc1nc(N)c2nc(C)n(CCOCCNC(=O)N3CCOCC3)c2c1C
139 to 140	CC(C)CNCC(=O)Nc1cccc2c1C(=O)c1c(NC(=O)CNCC(C)C)cccc1C2=O
149	CC1(C)NC(=O)N(c2ccc([N+](=O)[O-])c(C(F)(F)F)c2)C1=O

Compound	melting point [°C]
COC(=O)n1cc2c(c1)C(OC(C)=O)N=C(c1ccccc1Cl)c1cc(Cl)ccc1-2 (configuration not stated)	175 to 177
